Like-named read-outs stand apart in the source and are kept apart here.
Tests used:
Plasma protein binding = assay type: in vitro ADME; conditions: read-out: bound to plasma proteins (converted)
[1] = target: T1, nLuc-RIPK1 fusion protein (Homo sapiens, UniProt Q13546); assay: NanoBRET based in-cell RIPK1 target engagement
T1 construct: expressed in transfected cells
T1 sequence (Q13546 1-671): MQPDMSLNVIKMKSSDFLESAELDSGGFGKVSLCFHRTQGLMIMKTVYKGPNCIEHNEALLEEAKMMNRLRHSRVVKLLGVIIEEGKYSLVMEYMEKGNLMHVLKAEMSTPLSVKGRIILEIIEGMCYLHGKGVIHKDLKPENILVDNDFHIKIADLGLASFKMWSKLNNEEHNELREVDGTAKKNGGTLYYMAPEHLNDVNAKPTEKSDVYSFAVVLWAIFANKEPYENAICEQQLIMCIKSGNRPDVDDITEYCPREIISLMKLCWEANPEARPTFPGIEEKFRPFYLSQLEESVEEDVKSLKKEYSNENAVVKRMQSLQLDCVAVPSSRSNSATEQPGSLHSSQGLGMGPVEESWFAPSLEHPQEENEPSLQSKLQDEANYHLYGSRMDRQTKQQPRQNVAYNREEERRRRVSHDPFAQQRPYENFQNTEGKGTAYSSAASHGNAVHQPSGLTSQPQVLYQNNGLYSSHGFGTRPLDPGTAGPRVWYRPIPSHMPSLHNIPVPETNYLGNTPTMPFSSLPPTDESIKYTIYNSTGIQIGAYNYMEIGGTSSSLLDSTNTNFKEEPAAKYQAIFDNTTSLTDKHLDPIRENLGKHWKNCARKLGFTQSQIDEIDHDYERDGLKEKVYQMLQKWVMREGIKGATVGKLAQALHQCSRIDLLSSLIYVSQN
Description: Figure 2 LD4172, a RIPK1 PROTAC, induces potent and highly specific degradation of RIPK1 in a panel of cell lines. A, Chemical structures of RIPK1 PROTAC, LD4172, and its negative control, LD4172-NC. […] B, Quantification of RIPK1 levels in both Jurkat and B16F10 cells treated with LD4172 at indicated concentrations for 24 h, followed by Western blotting. C, DC50 and Dmax of LD4172 in various human and mouse cell lines. DC50, the drug concentration causing 50% protein degradation; Dmax, the maximum level of protein degradation. D, RIPK1 degradation kinetics induced by LD4172 treatment (1 μM) and resynthesis kinetics upon washout of LD4172 in both Jurkat and B16F10 cells. E, Quantification of D. The degradation half-life of RIPK1 induced by LD4172 (1 μM) is <2 h in Jurkat and B16F10 cells. […] F, NanoBRET based in-cell RIPK1 target engagement. HEK293 cells were transfected with a plasmid expressing nLuc-RIPK1 fusion protein for 24 h, followed by incubating with a RIPK1 NanoBRET tracer (500 nM) and different concentrations of LD4172 and LD4172-NC (n=3). G, Time-resolved fluorescence resonance energy transfer (TR-FRET) based biochemical binding assay for RIPK1. GST-tagged human RIPK1 (1 nM), Tb-labeled anti-GST antibody (0.3 nM), a RIPK1 TR-FRET tracer (350 nM) and different concentrations of LD4172 (n=3) were incubated for 2 hours, followed by TR-FRET measurements with an excitation wavelength at 340 nm and emission wavelengths at 495 and 520 nm. H, NanoBRET based in-cell assay for ternary complex formation. HEK293T cells were co-transfected with nLuc-RIPK1 and VHL-HaloTag plasmids for 24 h, followed by treatment with indicated concentrations of LD4172 or LD4172-NC (n=3). I, LD4172 induced RIPK1 degradation depends on ternary complex formation, neddylation and proteasome activity. Representative immunoblots of RIPK1 in both Jurkat and B16F10 cells. Cells were treated with RIPK1 inhibitor (T2I), VHL ligand, a neddylation inhibitor (MLN4924) or a proteasome inhibitor (Carfilzomib) at indicated concentrations for 4 hours, followed by LD4172 treatment for 4 hours. J, Proteome profiling of LD4172 induced protein degradation. MDA-MB- 231 cells were treated with LD4172 (200 nM) or LD4172-NC (200 nM) for 6 h (n=3). In total, ~10,000 proteins were quantified in the proteomics experiment. […] Blue dots represent kinases that are inhibited by the warhead of LD4172 but not degraded by LD4172.
To elucidate the formation of a binary complex during RIPK1 degradation, we developed a competitive NanoBRET (Nano-Bioluminescence Resonance Energy transfer)-based target engagement (TE) assay to quantify the binding between RIPK1 and LD4172 in cells[12],[13]. First, we developed a RIPK1 tracer by conjugating the LD4172 warhead T2I with a BODIPY-590 fluorescent dye, dubbed T2–590 (refer to Supporting Information for details). The dissociation equilibrium constant (Kd) between the tracer and RIPK1 was determined to be 0.5 μM by titrating the tracer in HEK293T cells expressing a nLuc-RIPK1 fusion protein. […] This is usually expected, considering that the large molecular weight of LD4172 may lead to poor cellular permeability.

MC38 tumors = assay: Syngeneic MC38 colon cancer model with anti-PD1; assay type: in vivo
[2] = Stability in mouse liver S9 fractions; assay type: in vitro ADME

Work on `Cc1ncsc1-c1ccc([C@H](C)NC(=O)[C@@H]2C[C@@H](O)CN2C(=O)[C@@H](NC(=O)CCCCCCCCCCC(=O)NCCCn2cc(-c3ccc4c(c3)CCN4C(=O)Cc3cccc(OC(F)(F)F)c3)c3c(N)ncnc32)C(C)(C)C)cc1` [LD4172] yielded a fraction unbound (Plasma protein binding) of 0.014, a Ki ([1]; Cheng-Prusoff equation, read-out: apparent Ki between compound and RIPK1 in the cells) of 1.9 µM and an IC50 ([1]; HEK293 cells, tracer 500 nM, n=3, read-out: IC50 (nM), Fig. 2F) of 3750 nM. For the same compound, the IC50 ([1]; tracer concentration at its Kd value, read-out: IC50, competition with tracer) was 3700 nM, the “tumor response in combination with anti-PD1” value (MC38 tumors) was “substantially sensitized MC38 tumors to anti-PD1 therapy” and the half-life [2] was 9.7 min. For the same compound, the “intrinsic clearance (CLint)” value [2] was 71.6 μL·min^− 1·mg^− 1 protein.

Reference: publication PMC11042424, “Development of a First-in-Class RIPK1 Degrader to Enhance Antitumor Immunity” (Research Square, 2024)
